Tested on: NCI-H23 complex spheroids with HUVEC/MSC, viability
Assay: Anticancer human tumor NCI-H23 cell line growth inhibition [RAS];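 further: spheroids exposed to compound for 7 days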;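 on viability, T/C: 100% = DMSO vehicle control viability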
Settings: for IC50: curve of first compound; for viability, T/C: stronger effect = lower value
Procedure, shortened: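 Agents were tested in combination matrices in half-log decrements from a top concentration at or near clinical Cmax (10 microM if undetermined). Targets were multi-cell spheroids of tumour lines plus HUVEC and MSC stromal cells.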

In the case of `CCc1c2c(nc3ccc(O)cc13)-c1cc3c(c(=O)n1C2)COC(=O)[C@]3(O)CC` + CCn1c(-c2cc(N3CCN(C)CC3)cnc2C(C)OC)c2c3cc(ccc31)-c1csc(n1)CC(NC(=O)C1CC1C)C(=O)N1CCCC(N1)C(=O)OCC(C)(C)C2, the IC50 (second compound 0.000949 µM) is reported as < 0.949 nM, the IC50 (second compound 0.003 µM) is reported as < 0.949 nM and the IC50 (second compound 0.00949 µM) is reported as < 0.949 nM. The IC50 (second compound 0.03 µM) was < 0.949 nM, the IC50 (second compound 0.0949 µM) was < 0.949 nM and the IC50 (second compound 0.3 µM) was < 0.949 nM. For the same compound, the viability, T/C (second compound 0.000949 µM, first compound 0.000949 µM) was 40.7%, the viability, T/C (second compound 0.000949 µM, first compound 0.003 µM) was 21% and the viability, T/C (second compound 0.000949 µM, first compound 0.00949 µM) was 4.92%. The viability, T/C (second compound 0.000949 µM, first compound 0.03 µM) was 2.52%, the viability, T/C (second compound 0.000949 µM, first compound 0.0949 µM) was 1.86% and the viability, T/C (second compound 0.000949 µM, first compound 0.3 µM) was 0.88%. For the same compound, the viability, T/C (second compound 0.003 µM, first compound 0.000949 µM) was 32.5%, the viability, T/C (second compound 0.003 µM, first compound 0.003 µM) was 13.4% and the viability, T/C (second compound 0.003 µM, first compound 0.00949 µM) was 4.98%. The viability, T/C (second compound 0.003 µM, first compound 0.03 µM) was 1.97%, the viability, T/C (second compound 0.003 µM, first compound 0.0949 µM) was 1.43% and the viability, T/C (second compound 0.003 µM, first compound 0.3 µM) was 1.2%. The viability, T/C (second compound 0.00949 µM, first compound 0.000949 µM) was 26.2%, the viability, T/C (second compound 0.00949 µM, first compound 0.003 µM) was 11.2% and the viability, T/C (second compound 0.00949 µM, first compound 0.00949 µM) was 5.03%. For the same compound, the viability, T/C (second compound 0.00949 µM, first compound 0.03 µM) was 1.84%, the viability, T/C (second compound 0.00949 µM, first compound 0.0949 µM) was 1.75% and the viability, T/C (second compound 0.00949 µM, first compound 0.3 µM) was 1.2%. For the same compound, the viability, T/C (second compound 0.03 µM, first compound 0.000949 µM) was 20.6%, the viability, T/C (second compound 0.03 µM, first compound 0.003 µM) was 11.9% and the viability, T/C (second compound 0.03 µM, first compound 0.00949 µM) was 5.17%. The viability, T/C (second compound 0.03 µM, first compound 0.03 µM) was 2.36%, the viability, T/C (second compound 0.03 µM, first compound 0.0949 µM) was 1.52% and the viability, T/C (second compound 0.03 µM, first compound 0.3 µM) was 1.97%. The viability, T/C (second compound 0.0949 µM, first compound 0.000949 µM) was 16%, the viability, T/C (second compound 0.0949 µM, first compound 0.003 µM) was 10.9% and the viability, T/C (second compound 0.0949 µM, first compound 0.00949 µM) was 4.9%. For the same compound, the viability, T/C (second compound 0.0949 µM, first compound 0.03 µM) was 3.03%, the viability, T/C (second compound 0.0949 µM, first compound 0.0949 µM) was 1.77% and the viability, T/C (second compound 0.0949 µM, first compound 0.3 µM) was 2.09%. For the same compound, the viability, T/C (second compound 0.3 µM, first compound 0.000949 µM) was 15.7%, the viability, T/C (second compound 0.3 µM, first compound 0.003 µM) was 10.6% and the viability, T/C (second compound 0.3 µM, first compound 0.00949 µM) was 4.9%. For the same compound, the viability, T/C (second compound 0.3 µM, first compound 0.03 µM) was 2.44%, the viability, T/C (second compound 0.3 µM, first compound 0.0949 µM) was 2.32% and the viability, T/C (second compound 0.3 µM, first compound 0.3 µM) was 2.38%.

For `C=CC(=O)Nc1cc(Nc2nccc(-c3cn(C)c4ccccc34)n2)c(OC)cc1N(C)CCN(C)C` + CCn1c(-c2cccnc2C(C)OC)c2c3cc(ccc31)N1CCOC(CC(NC(=O)C(C(C)C)N(C)C(=O)C3(F)CCN(C(=O)C#CC(C)(C)N(C)C)CC3)C(=O)N3CCCC(N3)C(=O)OCC(C)(C)C2)C1, the IC50 (second compound 0.000949 µM) was < 3.16 nM, the IC50 (second compound 0.003 µM) was 719 nM and the IC50 (second compound 0.00949 µM) was < 3.16 nM. The IC50 (second compound 0.03 µM) was < 3.16 nM, the IC50 (second compound 0.0949 µM) was < 3.16 nM and the IC50 (second compound 0.3 µM) was < 3.16 nM. It also gave a viability, T/C (second compound 0.000949 µM, first compound 0.00316 µM) of 38.8%, a viability, T/C (second compound 0.000949 µM, first compound 0.01 µM) of 38.4% and a viability, T/C (second compound 0.000949 µM, first compound 0.0316 µM) of 29%. The viability, T/C (second compound 0.000949 µM, first compound 0.1 µM) was 28.6%, the viability, T/C (second compound 0.000949 µM, first compound 0.316 µM) was 25.8% and the viability, T/C (second compound 0.000949 µM, first compound 1 µM) was 20.1%. It also gave a viability, T/C (second compound 0.003 µM, first compound 0.00316 µM) of 99.9%, a viability, T/C (second compound 0.003 µM, first compound 0.01 µM) of 44.7% and a viability, T/C (second compound 0.003 µM, first compound 0.0316 µM) of 101%. The viability, T/C (second compound 0.003 µM, first compound 0.1 µM) was 120%, the viability, T/C (second compound 0.003 µM, first compound 0.316 µM) was 102% and the viability, T/C (second compound 0.003 µM, first compound 1 µM) was 32.5%. The viability, T/C (second compound 0.00949 µM, first compound 0.00316 µM) was 35.5%, the viability, T/C (second compound 0.00949 µM, first compound 0.01 µM) was 28.9% and the viability, T/C (second compound 0.00949 µM, first compound 0.0316 µM) was 31.1%. For the same compound, the viability, T/C (second compound 0.00949 µM, first compound 0.1 µM) was 30.5%, the viability, T/C (second compound 0.00949 µM, first compound 0.316 µM) was 23.9% and the viability, T/C (second compound 0.00949 µM, first compound 1 µM) was 22.2%. For the same compound, the viability, T/C (second compound 0.03 µM, first compound 0.00316 µM) was 31.2%, the viability, T/C (second compound 0.03 µM, first compound 0.01 µM) was 26.7% and the viability, T/C (second compound 0.03 µM, first compound 0.0316 µM) was 30.9%. It also gave a viability, T/C (second compound 0.03 µM, first compound 0.1 µM) of 30.9%, a viability, T/C (second compound 0.03 µM, first compound 0.316 µM) of 18.3% and a viability, T/C (second compound 0.03 µM, first compound 1 µM) of 23.1%. The viability, T/C (second compound 0.0949 µM, first compound 0.00316 µM) was 27.1%, the viability, T/C (second compound 0.0949 µM, first compound 0.01 µM) was 28.6% and the viability, T/C (second compound 0.0949 µM, first compound 0.0316 µM) was 31%. For the same compound, the viability, T/C (second compound 0.0949 µM, first compound 0.1 µM) was 26.7%, the viability, T/C (second compound 0.0949 µM, first compound 0.316 µM) was 19.2% and the viability, T/C (second compound 0.0949 µM, first compound 1 µM) was 21.6%. It also gave a viability, T/C (second compound 0.3 µM, first compound 0.00316 µM) of 25.5%, a viability, T/C (second compound 0.3 µM, first compound 0.01 µM) of 26.7% and a viability, T/C (second compound 0.3 µM, first compound 0.0316 µM) of 24.6%. For the same compound, the viability, T/C (second compound 0.3 µM, first compound 0.1 µM) was 23%, the viability, T/C (second compound 0.3 µM, first compound 0.316 µM) was 22.9% and the viability, T/C (second compound 0.3 µM, first compound 1 µM) was 21.6%.

Reference: PubChem BioAssay AID2060885 (Molecular Pharmacology Branch, DTP, NCI, 2025)
